Data on one compound can be found in patent US20050124634A1, “1,4-dihydropyridine compounds, pharmaceutical compositions, and methods for the treatment of cardiovascular disease” (MYOGEN, INC., priority 2003, published 2005).

Assay [1] has as its system secretion of atrial natriuretic factor. Briefly: Anti-hypertrophic activity in NRVM, ANF ELISA (ANF secretion). Format: cell-based, rat. Particulars: Rattus norvegicus, read-out: IC50 of the ANF ELISA (antihypertrophic activity). The protocol:
Anti-hypertrophic Activity of Racemic Compound 1 and Purified Enantiomers of Compound 1. Neonatal rat ventricular myocytes (NRVM) were isolated from 1 to 3 day-old Sprague-Dawley rats using enzymatic digestion and myocyte enrichment techniques. NRVM were cultured in serum-containing media for 18 hours. For the continuation of culture, serum-free media was used. Hypertrophy of NRVM was induced using pharmacological stimuli, including phenylephrine, endothelin-1, and […]. Hypertrophic responses were determined using methods including the following: measurement of total cellular protein; secretion of atrial natriuretic factor; determination of cell volume; determination of the expression of so-called fetal genes such as atrial natriuretic factor, beta-myosin heavy chain and alpha-skeletal actin. ANF secretion was the most sensitive assay for measuring hypertrophy, and the IC50 of the ANF ELISA was the measurement used to determine antihypertrophic activity.
A general note: An ELISA detects its analyte on a solid surface through an enzyme-linked reagent.

The subject of assay [2] is α-MyHC protein levels. Briefly: α-MyHC cytoblot assay in neonatal rat ventricular myocytes (NRVM). The format is cell-based. The following applies: NRVM, 3 days. The protocol:
FIG. 1 Concentration-dependent effect of Compound 1 on α-MyHC protein levels in the cytoblot assay. NRVM are cultured for 3 days in serum-free medium in the presence of differing amounts of Compound 1. At the end of the culture period, NRVM are fixed and analyzed for α-MyHC protein levels using the BA-G5 monoclonal antibody specific for α-MyHC. Results are collected as RLU using a Packard Fusion Plate reader, and normalized to the signal from samples cultured in the absence of compound (control, set to 100%).
Preparation and culture of neonatal rat ventricular myocytes (NRVM) was performed by removing hearts from 1-3 day old rat neonatal pups, along with the atria and lungs. The ventricles were cut into smaller pieces and digested 3 times with collagenase for 20-30 min at 37° C. The myocytes were then separated from other cell types using a Percoll gradient. The myocyte layer was collected, washed 2 times, and plated on tissue culture grade 10 cm Petri dishes for 1-2 hrs. The non-adherent cells (myocytes) were removed and plated in Costar clear view 96 well plates coated with 0.2% gelatin for at least 2 hrs. The gelatin solution was removed, and the myocytes were resuspended in DMEM high glucose media (Mediatech) containing 10% charcoal/dextran treated FBS (Hyclone) and 1% Penicillin-Streptomycin-Glutamine (PSG, Gibco). Ten thousand NRVM were plated per well in a 100 μl volume, and incubated overnight at 37° C. in 5% CO2 in air. The following day, the media was replaced with 100 μl of serum-free DMEM high glucose medium supplemented with PSG and 0.3% Nutridoma-SP (Roche).
Compounds were reconstituted in DMSO at 30 mM, and aliquots were stored at −20° C. A 1:1000 dilution was prepared in serum-free DMEM medium supplemented with PSG and 0.3% Nutridoma, and sonicated for 5 min at room temperature. After sonication, additional 3 fold dilutions were prepared in the same medium. Diluted compound was then added to the NRVM cultures in a volume of 100 μl. A 100 mM thyroid hormone stock solution (T3, Calbiochem) was prepared in 100 mM NaOH and added at a final concentration of 3 nM in DMEM medium supplemented with PSG and 0.3% Nutridoma-SP (Roche). NRVM were cultured for 3 days before detection of α-myosin heavy chain (α-MyHC) protein levels in the cytoblot assay.
For the α-MyHC cytoblot assay, NRVM cultures were analyzed for α-MyHC protein levels after 3 days of incubation. NRVM were washed 2 times with PBS, fixed with methanol for 30 min at 4° C., and washed an additional 2 times with PBS. Blocking solution consisting of PBS with 1% bovine serum albumin (BSA, Fisher Biotech) was added for 1 hr at room temperature before addition of a saturating amount of supernatant containing an α-MyHC specific antibody for 60 min at room temperature (BA-G5 hybridoma, ATTC). Two washes were performed with PBS/1% BSA, and a 1:500 dilution of HRP-goat anti-mouse IgG (Southern Biotech) diluted in PBS/1% BSA was added for 60 min at room temperature. Excess antibody was removed with 3 PBS washes, and a chemiluminescent substrate was added (Pierce SuperSignal West Pico Chemiluminscent Substrate) for 5 min before quantitation on a Packard Fusion Plate Reader.
As shown above in Table 1, Compound 1 increased α-MyHC protein levels as determined by an α-MyHC cytoblot assay. Compound 1 was added to NRVM at concentration ranging from 3 nM to 30 μM. After 3 days of incubation with NRVM, α-MyHC protein levels were detected in the cytoblot assay and quantitated (FIG. 1). […] An increase in α-MyHC protein levels was first detected beginning at 30 nM, with a maximal response observed at 3 μM. In six independent experiments, the concentration of Compound 1 that gave a half-maximal response was on average 60 nM.

Assay [3] has as its system α-MyHC protein. The assay is described as follows: α-MyHC protein levels in NRVM by Western blotting. The format is cell-based, rat. The following applies: NRVM stimulated 3 days; Compound 1 10 nM to 10 μM. Here is the method:
FIG. 2 Effect of Compound 1 on α-MyHC protein levels as detected by Western blotting. NRVM are stimulated with Compound 1 at different concentrations for 3 days. Protein extracts are prepared, proteins are separated by SDS-PAGE electrophoresis, transferred to PVDF membrane, and detected with an anti-α-MyHC monoclonal antibody.
As an independent measure of changes in α-MyHC protein levels, NRVM stimulated with Compound 1 were analyzed for α-MyHC protein levels by Western blotting. Protein extracts prepared from NRVM stimulated with a range of concentrations of Compound 1 from 10 nM to 10 μM were separated by SDS-PAGE and transferred to PVDF membrane. Levels of α-MyHC protein were detected by Western blotting using the same anti-α-MyHC monoclonal antibody used in the cytoblot assay. […] This experiment verified that the changes in α-MyHC protein detected in the cytoblot assay were also evident by Western blotting.
In general terms: A western blot detects proteins with antibodies after separation by electrophoresis.

For `CC(=O)C1=C(C)NC(SCC(=O)c2cccc([N+](=O)[O-])c2)=C(C#N)C1c1ccccc1Cl` (racemic) [Compound 1], the IC50 in assay [1] was 427 nM. Besides, the “% increase of a-MyHC over baseline at 10 mM Cpd” value in assay [2] (10 mM Cpd) was 206%. In assay [2] (tested 3 nM to 30 μM), the “concentration at which an increase in α-MyHC protein levels was first detected” value turned out to be 30 nM and the “concentration at which maximal response was observed” value worked out at 3 µM. Moreover, the EC50 in assay [2] (Rattus norvegicus, Ventricular myocyte, 72 h, average of six independent experiments, read-out: concentration that gave a half-maximal response (α-MyHC protein levels)) was found to be 60 nM. In addition, in assay [3], the “α-MyHC protein levels by Western blotting” value was “increasing amounts of α-MyHC protein were observed with increasing amounts of Compound 1”.

A word on the IC50: it is the midpoint of a concentration-inhibition curve.
